BigSolDB 2.1

Nc1cccc2c1C(=O)N(C1CCC(=O)NC1=O)C2=O (stereo unspecified)
solubility (mole fraction)
Conditions | 278.15 K | 283.15 K | 288.15 K | 293.15 K | 298.15 K | 303.15 K | 308.15 K | 313.15 K | 318.15 K
in acetone | 1.43e-06 | 2e-06 | 2.59e-06 | 3.32e-06 | 4.27e-06 | 5.32e-06 | 6.53e-06 | 7.84e-06 | 9.49e-06
in ethanol | 1.8e-07 | 2.4e-07 | 3.1e-07 | 4.1e-07 | 5.3e-07 | 6.8e-07 | 8.5e-07 | 1.04e-06 | 1.26e-06
in ethyl acetate | 4.5e-07 | 6.6e-07 | 9.3e-07 | 1.21e-06 | 1.55e-06 | 1.95e-06 | 2.38e-06 | 2.96e-06 | 3.62e-06
in isopropanol | 2.3e-07 | 3.4e-07 | 4.8e-07 | 6.3e-07 | 8.1e-07 | 1.02e-06 | 1.26e-06 | 1.56e-06 | 1.9e-06
